From article PMC11672316, “Identification of ANXA1 as a Novel Upstream Negative Regulator of Notch1 Function in AML” (Advanced Science, 2024)
Ends that are not written are not given here. Peptide text beside a SMILES is read from it. * marks the point of attachment. Cbz = O=C(OCc1ccccc1)*

Key:
Assay type in all cases: cell-based, human
NICD [1] = assay: Western blotting of NICD after MG132 treatment; settings: AML cells (KG1a and HL60)
Protocol: (§1) Cells were lysed in a lysis buffer containing 0.5 mM EDTA, 20 mM HEPES and 2% SDS. Samples mixed with SDS-gel loading buffer were loaded onto SDS-PAGE gel and transferred onto polyvinylidene fluoride (PVDF) microporous membranes (Millipore). Membranes were blocked with 5% nonfat milk in TBST (20 mM Tris-HCl, 150 mM NaCl, 0.1% Tween-20 with pH 7.5) for 2 hours and incubated with primary antibodies (Table S6, Supporting Information) at 4°C overnight. The membranes were incubated with a secondary antibody (Table S6, Supporting Information) followed by detection in an imaging system (ChampChemi 910, SageCreation) using the ECL reagent solution (SageCreation).

NICD [2] = assay: Co-immunoprecipitation, NICD-bound ubiquitin; settings: KG1a- and HL60- shANXA1 or shControl cells; MG132 0 or 6 h; Figure 3C
Protocol: For co-immunoprecipitation (Co-IP) assay, the cells were lysed with NP-40 lysis buffer (Beyotime) containing 1 mM PMSF for 30 min at 4°C. The total protein concentrations were measured using BCA protein assay kit (Solarbio) according to the instructions. The lysates were divided into several tubes and precleared by adding protein A/G-agarose (Santa Cruz) for 30 min at 4°C. The samples were centrifuged to remove the precipitation and incubated with Notch1 antibody or normal rabbit IgG (Table S6, Supporting Information) for 2 hours, and then incubated with protein A/G-agarose overnight. The complexes were washed with NP-40 lysis buffer four times before being eluted in SDS-gel loading buffer and detected by western blotting.

p15 = assay: Western blotting of p15 after RO4929097 treatment; settings: 24 h, Figure 4D
Protocol: as §1

KG1a-shANXA1 cells = assay: Cell counting proliferation assay, KG1a-shANXA1; settings: 24 h, Figure 4E, three independent experiments
Protocol: (§2) For the cell counting assay, transfected cell lines or parental cells were seeded in a cell culture plate at the same density and cultured with RPMI-1640 medium, which sometimes added drugs. The number of cells was counted by a cell counter (Countstar BioTech IC 1000, Countstar) after indicated time.

HL60-shANXA1 cells = assay: Cell counting proliferation assay, HL60-shANXA1; settings: 24 h, Figure 4E, three independent experiments
Protocol: as §2

KG1a cells = assay: MTT assay, KG1a (FPR blocking or activation); settings: Figure S14, three independent experiments
Protocol: (§3) For Methylthiazolyldiphenyl-tetrazolium bromide (MTT) assay, cells were seeded in a 96-well plate and incubated with drugs or peptides. At the indicated time point, each well was added with 10 μL MTT solution (5 mg mL^-1, Sigma-Aldrich) and then incubated at 37°C in 5% CO2 for 4 hours. The medium was replaced by DMSO with 150 μL to dissolve the formazan crystals.

HL60 cells = assay: MTT assay, HL60 (FPR blocking or activation); settings: Figure S14, three independent experiments
Protocol: as §3

Molecule: CC(C)C[C@@H](C=O)NC(=O)[C@H](CC(C)C)NC(=O)[C@H](CC(C)C)NC(=O)OCc1ccccc1 [MG132] (Cbz-Leu-Leu-Leu-aldehyde)
- NICD expression level (NICD [1]; ANXA1 knockdown group): minimally affected the expression level of NICD in the ANXA1 knockdown group
- NICD degradation (NICD [1]; shControl, 3 h): significantly reversed the ANXA1‐induced NICD degradation after 3 h of treatment in the control group
- ubiquitin bound to NICD (NICD [2]): ubiquitin was bound to NICD significantly in the shControl cells after MG132 treatment rather than ANXA1 knockdown cells

Molecule: CC(C)(C(=O)NCC(F)(F)C(F)(F)F)C(=O)N[C@@H]1C(=O)Nc2ccccc2-c2ccccc21 [RO4929097]
- p15 expression (p15; HL60 with ANXA1 knockdown): inhibited the expression of p15 in KG1a and HL60 cells with ANXA1 knockdown
- p15 expression (p15; KG1a with ANXA1 knockdown): inhibited the expression of p15 in KG1a and HL60 cells with ANXA1 knockdown
- cell proliferation (KG1a-shANXA1 cells): promoting the proliferation of AML cells
- cell proliferation (HL60-shANXA1 cells): promoting the proliferation of AML cells

Molecule: Ac2-26: N-terminal ANXA1 peptide, FPR agonist (Ac-AMVSEFLKQAWFIENEEQEYVQTVK; UniProt P04083 2-26, looked up, fragment)
- effect on proliferation (KG1a cells): neither the FPR antagonist nor the N‐terminal ANXA1 peptide Ac2‐26 affected the proliferation of AML cells
- effect on proliferation (HL60 cells): neither the FPR antagonist nor the N‐terminal ANXA1 peptide Ac2‐26 affected the proliferation of AML cells
